Experimental findings from ChEMBL document CHEMBL5252664, “Orally Active Forms of DMT, 5-MeO-DMT, and Long-Acting MDMA for the Treatment of Neuropsychiatric Disorders” (ACS Med Chem Lett, 2023) are described below.

Common to all, as to type: ADME, organism-based
Settings in all cases: in vivo

Series [1] can be described thus: Cmax in Sprague-Dawley rat at 10 mg/kg, po. On the set-up: dose 10 mg/kg, route po.
Series [2] in a line: Tmax in Sprague-Dawley rat at 10 mg/kg, po.
Series [3] is described as follows: AUC (0 to last) in Sprague-Dawley rat at 10 mg/kg, po. Also noted: dose 10 mg/kg, route po.
Series [4] can be described thus: Half life in Sprague-Dawley rat at 10 mg/kg, po.

On to `COc1ccc2c(c1)c(CCN(C)C)cn2C(=O)[C@@H](N)C(C)C.Cl.Cl`, for which the Cmax (commonly the peak of the concentration-time curve) in series [1] was 11.1 ng/mL. Moreover, the Tmax (usually the time at which the peak concentration occurs) in series [2] was determined as 2 h. Also, in series [3], the AUC(0-t) (usually the area under the concentration-time curve up to a stated or last time point) is 155 ng·h/mL. Besides, the half-life – broadly, the time in which the quantity being followed falls by half – in series [4] is 5.54 h.
For `COc1ccc2c(c1)c(CCN(C)C)cn2C(=O)c1ccccc1` the same measures were 17.7 ng/mL, 1 h, 66.5 ng·h/mL and 10.3 h.
With `C[C@H](N)C(=O)n1cc(CCN(C)C)c2ccccc21.Cl.Cl`, the concentration in series [1] peaked (Cmax) at 20.2 ng/mL. The Tmax in series [2] is 0.5 h. In series [3], the AUC(0-t) worked out at 126 ng·h/mL. The same compound had a half-life in series [4] of 4.08 h.
The compound `CN(C)CCc1cn(C(=O)CN(C)C(=O)[C@H](N)Cc2ccccc2)c2ccccc12.Cl.Cl` displayed a Cmax in series [1] of 2.43 ng/mL. The Tmax in series [2] was found to be 0.5 h. The AUC(0-t) in series [3] is 7.17 ng·h/mL. Besides, the half-life in series [4] is 3.31 h.
On to `COc1ccc2c(c1)c(CCN(C)C)cn2C(=O)CCCC(C)=O`, for which, in series [1], the Cmax stood at 106 ng/mL. In addition, in series [2], the Tmax amounted to 1 h. In series [3], this compound registered an AUC(0-t) of 362 ng·h/mL. Further, the half-life in series [4] is 2.02 h.
